{"source": "patent US20130108573A1", "about": "“Bile Acid Recycling Inhibitors for Treatment of Hypercholemia and Cholestatic Liver Disease” (Lumena Pharmaceuticals, Inc., priority 2011, published 2013)", "key": {"Dog Serum Bile Acids": {"tested_on": "Dog Serum Bile Acids", "assay": "Time to onset of activity of LUM001 on postprandial serum bile acids in beagle dogs", "assay_type": "in vivo", "settings": "for Serum Bile Acid, Mean: dogs n = 6, fed at 0 min, dosed at 60 min", "method": "LUM001 was dissolved in water at concentrations that required the administration of 0.2 ml/kg of solution. Solutions were placed into gelatin capsules, Torpac Inc., size 13 Batch 594, East Hanover N.J., and administered orally.\nMale beagle dogs were obtained from Covance Research Products, Cumberland Va. or Marshall Farms USA, Inc., North Rose N.Y. A total of 20 dogs, 1 to 5 years old, 6.8 to 15.6 kg body weight, were used in these experiments. The dogs were conditioned to a 12 hour light/dark cycle and maintained on a feeding restriction of 1 hour per day access to food (Richman Standard Certified Canine Diet #5007, PMI Nutrition, Inc., St Louis Mo.) from 7 to 8 AM. They were trained to eat a special meal promptly within 20 minutes when presented (1 can. 397 g, Evanger's 100% Beef for Dogs, Evanger's Dog and Cat Food Co., Inc., Wheeling Ill., mixed with 50 g of sharp cheddar cheese.).\nSBA was measured by an enzymatic assay. SBA values are expressed as μg of total bile acids/ml of serum.\nTo estimate the details of this plateau, 6 dogs were given a test meal and blood samples for SBA measurement were collected at −30, 0, 30, 60, 65, 70, 80, 90, 120, 180, 240, 360, 480, 720, 1410 and 1440 minutes from the time of feeding. Any remaining food was removed 20 min after it was first presented to the dogs. To establish a method for extending the elevated plateau of SBA, 6 dogs were given the meal at 0 hr and an additional ½ size meal again 4 hr after their first meal. Blood samples were taken at 0, 1, 2, 3, 4, 4.5, 6, 7 and 8 hr. The curves for SBA level vs time obtained in these experiments were used as references for determining blood sampling times in experiments with LUM001. Wherever possible, experimental design permitting, in experiments with test compound, each dog served as its own simultaneous control, and the mean 1 hr SBA value served as the reference to which all other mean values were compared.\nLUM001 was administered at 0, 0.01, 0.05, 0.2 and 1 mg/kg, p.o. to dogs, n=6, 1 hr after feeding the standard experimental meal. Blood samples for SBA measurement were taken at −30, 0, 30, 60, 65, 70, 80, 90, 120 and 180 minutes from the time of feeding. Each dog served as its own control, and mean SBA levels were compared to the mean SBA level at 60 minutes."}, "[1]": {"assay": "Pediatric multiple-dose study of LUM-001: tolerability", "assay_type": "in vivo, human", "settings": "2 weeks daily up to 5 mg q.d., 39 treated subjects aged 10-17", "source_text": "(39 treated subjects aged 10-17)."}, "[2]": {"assay": "Pharmacokinetics of LUM001 in subjects under 18 years (study NB-00-02-014): systemic exposure", "assay_type": "in vivo, human", "settings": "for Average serum drug exposure: day eight", "method": "LUM001 has been administered to forty patients under the age of 18 years old. […] The drug was administered once-a-day (QD) in the morning for fourteen days. […] These doses are similar to those using to treat patients with cholestatic diseases."}, "[3]": {"tested_on": "Serum Bile Acid and Fecal Bile Acid", "assay": "Phase 1 ascending multiple oral dose study of LUM001 in healthy adult subjects: serum and fecal bile acid analysis", "assay_type": "in vivo, human", "settings": "ascending multiple oral doses, 28 days, vs placebo", "method": "This Phase 1 study was a randomized, double-blind, placebo-controlled study of ascending multiple oral doses of LUM001 in healthy, adult subjects. This study was conducted at a single center. There were 13 LUM001 dosing panels: 10, 20, 60, 100, and 20 mg every morning (qAM) (2) (i.e., the regimen was tested a second time in the study), 5 mg every evening (qPM), 0.5, 1, 2.5, 5, 2.5 (2), 5 (2), and 0.5 to 5 mg qAM dose titration. Most of the dosing panels included subjects treated with matching placebo. Shown in the graphs are data from the 0.5 (n=16), 1.0 (n=8), 2.5 (n=8), 5.0 (n=8) and 10 (n=8) mg dosing groups. […]\nSBA were analyzed as part of the routine clinical analysis of the serum samples collected at each time point.\nFecal samples were collected for all panels except the dose-titration panel, 2.5 (2) and 5 mg (2), on Days 9 through 14 and 23 through 28 (data shown in FIG. 4). Twenty-four hour FBA excretions were quantified by Pharmacia for Days 9 through 14 and 23 through 28. […] The weight of each 24-hour fecal collection was recorded on the CRFs. […]\nAn aliquot for each 24-hour fecal sample collected on Days 23 through 28 was combined, homogenized, and analyzed for bile acid species concentrations by ANAPHARM. The fecal bile acid species evaluated include chenodeoxycholic acid, cholic acid, deoxycholic acid, and lithocholic acid."}, "[4]": {"settings": "dogs, 1 mg/kg orally 1 hour after feeding"}}, "note": "Marks after values point to notes of the source that are not given here.", "data": [{"smiles": "CCCCC1(CCCC)CS(=O)(=O)c2ccc(N(C)C)cc2[C@@H](c2ccc(OCc3ccc(C[N+]45CCN(CC4)CC5)cc3)cc2)[C@H]1O", "note": "[LUM001]", "values": [{"measurement": "Threshold dose for significant SBA lowering", "setting": "Dog Serum Bile Acids; dog SBA model, oral", "value": 0.05, "unit": "mg/kg"}, {"measurement": "Serum Bile Acid, Mean", "setting": "Dog Serum Bile Acids; 0.01 mg/kg p.o., time 0 min", "value": 1.4, "unit": "µg/mL"}, {"measurement": "Serum Bile Acid, Mean", "setting": "Dog Serum Bile Acids; 0.01 mg/kg p.o., time 30 min", "value": 5.8, "unit": "µg/mL"}, {"measurement": "Serum Bile Acid, Mean", "setting": "Dog Serum Bile Acids; 0.01 mg/kg p.o., time 60 min", "value": 14.6, "unit": "µg/mL"}, {"measurement": "Serum Bile Acid, Mean", "setting": "Dog Serum Bile Acids; 0.01 mg/kg p.o., time 65 min", "value": 13.9, "unit": "µg/mL"}, {"measurement": "Serum Bile Acid, Mean", "setting": "Dog Serum Bile Acids; 0.01 mg/kg p.o., time 70 min", "value": 14.1, "unit": "µg/mL"}, {"measurement": "Serum Bile Acid, Mean", "setting": "Dog Serum Bile Acids; 0.01 mg/kg p.o., time 80 min", "value": 12.8, "unit": "µg/mL"}, {"measurement": "Serum Bile Acid, Mean", "setting": "Dog Serum Bile Acids; 0.01 mg/kg p.o., time 90 min", "value": 11.0, "unit": "µg/mL"}, {"measurement": "Serum Bile Acid, Mean", "setting": "Dog Serum Bile Acids; 0.01 mg/kg p.o., time 120 min", "value": 10.6, "unit": "µg/mL"}, {"measurement": "Serum Bile Acid, Mean", "setting": "Dog Serum Bile Acids; 0.01 mg/kg p.o., time 180 min", "value": 11.0, "unit": "µg/mL"}, {"measurement": "Serum Bile Acid, Mean", "setting": "Dog Serum Bile Acids; 0.01 mg/kg p.o., time −30 min", "value": 1.5, "unit": "µg/mL"}, {"measurement": "Serum Bile Acid, Mean", "setting": "Dog Serum Bile Acids; 0.05 mg/kg p.o., time 0 min", "value": 2.1, "unit": "µg/mL"}, {"measurement": "Serum Bile Acid, Mean", "setting": "Dog Serum Bile Acids; 0.05 mg/kg p.o., time 30 min", "value": 6.8, "unit": "µg/mL"}, {"measurement": "Serum Bile Acid, Mean", "setting": "Dog Serum Bile Acids; 0.05 mg/kg p.o., time 60 min", "value": 10.4, "unit": "µg/mL"}, {"measurement": "Serum Bile Acid, Mean", "setting": "Dog Serum Bile Acids; 0.05 mg/kg p.o., time 65 min", "value": 12.2, "unit": "µg/mL"}, {"measurement": "Serum Bile Acid, Mean", "setting": "Dog Serum Bile Acids; 0.05 mg/kg p.o., time 70 min", "value": 12.0, "unit": "µg/mL"}, {"measurement": "Serum Bile Acid, Mean", "setting": "Dog Serum Bile Acids; 0.05 mg/kg p.o., time 80 min", "value": 10.0, "unit": "µg/mL"}, {"measurement": "Serum Bile Acid, Mean", "setting": "Dog Serum Bile Acids; 0.05 mg/kg p.o., time 90 min", "value": 8.8, "unit": "µg/mL"}, {"measurement": "Serum Bile Acid, Mean", "setting": "Dog Serum Bile Acids; 0.05 mg/kg p.o., time 120 min", "value": "6.5* μg/ml"}, {"measurement": "Serum Bile Acid, Mean", "setting": "Dog Serum Bile Acids; 0.05 mg/kg p.o., time 180 min", "value": "6.5* μg/ml"}, {"measurement": "Serum Bile Acid, Mean", "setting": "Dog Serum Bile Acids; 0.05 mg/kg p.o., time −30 min", "value": 1.4, "unit": "µg/mL"}, {"measurement": "Serum Bile Acid, Mean", "setting": "Dog Serum Bile Acids; 0.2 mg/kg p.o., time 0 min", "value": 1.9, "unit": "µg/mL"}, {"measurement": "Serum Bile Acid, Mean", "setting": "Dog Serum Bile Acids; 0.2 mg/kg p.o., time 30 min", "value": 9.1, "unit": "µg/mL"}, {"measurement": "Serum Bile Acid, Mean", "setting": "Dog Serum Bile Acids; 0.2 mg/kg p.o., time 60 min", "value": 19.1, "unit": "µg/mL"}, {"measurement": "Serum Bile Acid, Mean", "setting": "Dog Serum Bile Acids; 0.2 mg/kg p.o., time 65 min", "value": 14.9, "unit": "µg/mL"}, {"measurement": "Serum Bile Acid, Mean", "setting": "Dog Serum Bile Acids; 0.2 mg/kg p.o., time 70 min", "value": 16.7, "unit": "µg/mL"}, {"measurement": "Serum Bile Acid, Mean", "setting": "Dog Serum Bile Acids; 0.2 mg/kg p.o., time 80 min", "value": 14.3, "unit": "µg/mL"}, {"measurement": "Serum Bile Acid, Mean", "setting": "Dog Serum Bile Acids; 0.2 mg/kg p.o., time 90 min", "value": "9.8* μg/ml"}, {"measurement": "Serum Bile Acid, Mean", "setting": "Dog Serum Bile Acids; 0.2 mg/kg p.o., time 120 min", "value": "4.8* μg/ml"}, {"measurement": "Serum Bile Acid, Mean", "setting": "Dog Serum Bile Acids; 0.2 mg/kg p.o., time 180 min", "value": 4.0, "unit": "µg/mL"}, {"measurement": "Serum Bile Acid, Mean", "setting": "Dog Serum Bile Acids; 0.2 mg/kg p.o., time −30 min", "value": 2.4, "unit": "µg/mL"}, {"measurement": "Serum Bile Acid, Mean", "setting": "Dog Serum Bile Acids; 1 mg/kg p.o., time 0 min", "value": 2.6, "unit": "µg/mL"}, {"measurement": "Serum Bile Acid, Mean", "setting": "Dog Serum Bile Acids; 1 mg/kg p.o., time 30 min", "value": 7.6, "unit": "µg/mL"}, {"measurement": "Serum Bile Acid, Mean", "setting": "Dog Serum Bile Acids; 1 mg/kg p.o., time 60 min", "value": 13.8, "unit": "µg/mL"}, {"measurement": "Serum Bile Acid, Mean", "setting": "Dog Serum Bile Acids; 1 mg/kg p.o., time 65 min", "value": 13.5, "unit": "µg/mL"}, {"measurement": "Serum Bile Acid, Mean", "setting": "Dog Serum Bile Acids; 1 mg/kg p.o., time 70 min", "value": 15.4, "unit": "µg/mL"}, {"measurement": "Serum Bile Acid, Mean", "setting": "Dog Serum Bile Acids; 1 mg/kg p.o., time 80 min", "value": 12.1, "unit": "µg/mL"}, {"measurement": "Serum Bile Acid, Mean", "setting": "Dog Serum Bile Acids; 1 mg/kg p.o., time 90 min", "value": "7.4* μg/ml"}, {"measurement": "Serum Bile Acid, Mean", "setting": "Dog Serum Bile Acids; 1 mg/kg p.o., time 120 min", "value": "3.0* μg/ml"}, {"measurement": "Serum Bile Acid, Mean", "setting": "Dog Serum Bile Acids; 1 mg/kg p.o., time 180 min", "value": "2.6* μg/ml"}, {"measurement": "Serum Bile Acid, Mean", "setting": "Dog Serum Bile Acids; 1 mg/kg p.o., time −30 min", "value": 2.1, "unit": "µg/mL"}, {"measurement": "Time after dosing to significantly lowered serum bile acid levels", "setting": "Dog Serum Bile Acids; dogs, 0.2 mg/kg orally 1 hour after feeding", "value": "≤ 30", "unit": "min"}, {"measurement": "Effect of increasing the dose above the ED50 level on onset time to significant SBA lowering", "setting": "Dog Serum Bile Acids; [4]", "value": "did not shorten the onset time"}, {"measurement": "Time after dosing for which maximal SBA suppression was sustained", "setting": "Dog Serum Bile Acids; [4]", "value": 2, "unit": "h"}, {"measurement": "Tolerability", "setting": "[1]", "value": "well-tolerated"}, {"measurement": "Systemic exposure (absorption) of LUM001", "setting": "[2]; patients under the age of 18, once-a-day in the morning for fourteen days, measured on day eight", "value": "minimally absorbed"}, {"measurement": "Average serum drug exposure", "setting": "[2]; subject 0304, LUM001 1.0 mg QD (24.3 μg/kg)", "value": 0.0, "unit": "ng/mL"}, {"measurement": "Average serum drug exposure", "setting": "[2]; subject 0309, LUM001 1.0 mg QD (35.0 μg/kg)", "value": 0.0, "unit": "ng/mL"}, {"measurement": "Fecal bile acids", "setting": "[3]", "value": "significant increase"}, {"measurement": "Serum bile acids", "setting": "[3]", "value": "significant reduction"}]}]}
